Test results from patent US9765105B2, “Macrolide compound” (Pulike Biological Engineering, Inc., priority 2013, dated 2017).

Legend:
[1] = acute oral toxicity test, LD50 by improved karber method; conditions: for LD50 at 7 days: both, Konmin, mouse, in vivo, po
[2] = system: Streptococcus pneumoniae CMCC 31203; experiment: in vivo antibacterial test, survival of infected mice; design: species or system BALB/c mice; conditions: mice infected i.p. with Streptococcus pneumoniae; 5 mg per kg subcutaneous for 3 consecutive days; observed until the seventh day
[3] = system: Staphylococcus aureus CVCC26003; experiment: in vitro susceptibility, MIC by mini broth dilution; type: cell-based; conditions: strain CVCC26003
Summary of the method: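 MICs were determined by mini broth dilution under NCCLS standards in CAMHB, using revived S. aureus CVCC26003 subcultured 20 h at 35° C. Compounds were two-fold serially diluted in DMSO across 11 wells, with duplicate rows. Bacterial suspension was diluted 1:200 in medium before inoculation.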

[4] = system: Streptococcus equines CVCC556; experiment: as above; type: cell-based; conditions: strain CVCC556
Summary of the method: (§1)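 MICs determined by mini broth dilution per NCCLS (now CLSI) standards. Strains revived from −20° C, subcultured twice on solid medium at 35° C for 20 h; compounds two-fold serially diluted in DMSO over 11 gradients, duplicate rows, bacterial suspension diluted 1:200 in liquid medium.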

[5] = system: Pasteurella multocida CVCC399; experiment: as above; type: cell-based; conditions: strain CVCC399
Summary of the method: as §1

[6] = system: Actinobacillus pleuropneumoniae CVCC262; experiment: as above; type: cell-based; conditions: strain CVCC262
Summary of the method: as §1

[7] = system: Haemophilus parasuis; experiment: as above; type: cell-based
Summary of the method: as §1

CC[C@@H]1OC(=O)[C@H](C)[C@H](OC2C[C@@](C)(OC)[C@](O)(CN3CCOCC3)[C@H](C)O2)[C@@H](C)[C@@H](O[C@@H]2O[C@H](C)C[C@H](N(C)C)[C@H]2O)[C@](C)(O)C[C@@H](C)NC[C@@H](C)[C@H](O)[C@]1(C)O (stereo partly drawn) [syzx-5, (2R,3S,4R,5S,8R,10R,11R,12S,13S,14R)-13-[(2,6-dideoxy-3-C-methyl-3-O-methyl-4-C-[(morpholinyl)methyl]-α-L-ribopyranosyl)oxy]-2-ethyl-3,4,10-trihydroxy-3,5,8,10,12,14-hexamethyl-11-[[3,4,6-trideoxy-3-(dimethylamino)-β-D-xylo-hexopyranosy]oxy]-1-oxa-7-azacyclopentadecan-15-one]
LD50 at 7 days [1]: 2730 mg/kg
Animal survival rate (surviving/total animals) [2]: 7/10

CC[C@@H]1OC(=O)[C@H](C)[C@H](OC2C[C@@](C)(OC)[C@](O)(CNC(C)C)[C@H](C)O2)[C@@H](C)[C@@H](O[C@@H]2O[C@H](C)C[C@H](N(C)C)[C@H]2O)[C@](C)(O)C[C@@H](C)NC[C@@H](C)[C@H](O)[C@]1(C)O (stereo partly drawn) [syzx-11, (2R,3S,4R,5S,8R,10R,11R,12S,13S,14R)-13-[(2,6-dideoxy-3-C-methyl-3-O-methyl-4-C-[(isopropylamino)methyl]-α-L-ribopyranosyl)oxy]-2-ethyl-3,4,10-trihydroxy-3,5,8,10,12,14-hexamethyl-11-[[3,4,6-trideoxy-3-(dimethylamino)-β-D-xylo-hexopyranosy]oxy]-1-oxa-7-azacyclopentadecan-15-one]
LD50 at 7 days [1]: 4200 mg/kg
Animal survival rate (surviving/total animals) [2]: 8/10

CC[C@@H]1OC(=O)[C@H](C)[C@H](OC2C[C@@](C)(OC)[C@](O)(CN(CC)CC)[C@H](C)O2)[C@@H](C)[C@@H](O[C@@H]2O[C@H](C)C[C@H](N(C)C)[C@H]2O)[C@](C)(O)C[C@@H](C)NC[C@@H](C)[C@H](O)[C@]1(C)O (stereo partly drawn) [syzx-3, (2R,3S,4R,5S,8R,10R,11R,12S,13S,14R)-13-[(2,6-dideoxy-3-C-methyl-3-O-methyl-4-C-[(diethylamino)methyl]-α-L-ribopyranosyl)oxy]-2-ethyl-3,4,10-trihydroxy-3,5,8,10,12,14-hexamethyl-11-[[3,4,6-trideoxy-3-(dimethylamino)-β-D-xylo-hexopyranosy]oxy]-1-oxa-7-azacyclopentadecan-15-one]
LD50 at 7 days [1]: 2490 mg/kg
Animal survival rate (surviving/total animals) [2]: 8/10

CCCCNC[C@]1(O)[C@H](C)OC(O[C@@H]2[C@@H](C)[C@@H](O[C@@H]3O[C@H](C)C[C@H](N(C)C)[C@H]3O)[C@](C)(O)C[C@@H](C)NC[C@@H](C)[C@H](O)[C@](C)(O)[C@H](CC)OC(=O)[C@@H]2C)C[C@@]1(C)OC (stereo partly drawn) [syzx-2, (2R,3S,4R,5S,8R,10R,11R,12S,13S,14R)-13-[(2,6-dideoxy-3-C-methyl-3-O-methyl-4-C-[(butylamino)methyl]-α-L-ribopyranosyl)oxy]-2-ethyl-3,4,10-trihydroxy-3,5,8,10,12,14-hexamethyl-11-[[3,4,6-trideoxy-3-(dimethylamino)-β-D-xylo-hexopyranosy]oxy]-1-oxa-7-azacyclopentadecan-15-one]
LD50 at 7 days [1]: 2550 mg/kg
Animal survival rate (surviving/total animals) [2]: 8/10

CCNC[C@]1(O)[C@H](C)OC(O[C@@H]2[C@@H](C)[C@@H](O[C@@H]3O[C@H](C)C[C@H](N(C)C)[C@H]3O)[C@](C)(O)C[C@@H](C)NC[C@@H](C)[C@H](O)[C@](C)(O)[C@H](CC)OC(=O)[C@@H]2C)C[C@@]1(C)OC (stereo partly drawn) [syzx-10, (2R,3S,4R,5S,8R,10R,11R,12S,13S,14R)-13-[(2,6-dideoxy-3-C-methyl-3-O-methyl-4-C-[(ethylamino)methyl]-α-L-ribopyranosyl)oxy]-2-ethyl-3,4,10-trihydroxy-3,5,8,10,12,14-hexamethyl-11-[[3,4,6-trideoxy-3-(dimethylamino)-β-D-xylo-hexopyranosy]oxy]-1-oxa-7-azacyclopentadecan-15-one]
LD50 at 7 days [1]: 2810 mg/kg
Animal survival rate (surviving/total animals) [2]: 9/10

CCCNC[C@]1(O)[C@H](C)O[C@@H](O[C@H]2[C@H](C)[C@@H](O[C@@H]3O[C@H](C)C[C@H](N(C)C)[C@H]3O)[C@](C)(O)C[C@@H](C)NC[C@H](C)[C@@H](O)[C@](C)(O)[C@@H](CC)OC(=O)[C@@H]2C)C[C@@]1(C)OC [syzx-1, (2R,3S,4R,5S,8R,10R,11R,12S,13S,14R)-13-[(2,6-dideoxy-3-C-methyl-3-O-methyl-4-C-[(propylamino)methyl]-α-L-ribopyranosyl)oxy]-2-ethyl-3,4,10-trihydroxy-3,5,8,10,12,14-hexamethyl-11-[[3,4,6-trideoxy-3-(dimethylamino)-β-D-xylo-hexopyranosy]oxy]-1-oxa-7-azacyclopentadecan-15-one]
MIC values, Staphylococcus aureus CVCC26003 [3]: 0.125 ug/mi
LD50 ([1]; per os, gavaged once, in 0.2% sodium carboxymethylcellulose, observed 7 days): 2584.8 mg/kg
Animal survival rate [2]: 80%
Animal survival rate (surviving/total animals) [2]: 8/10
MIC values, Streptococcus equines CVCC556 [4]: 0.125 ug/mi
MIC values, Pasteurella multocida CVCC399 [5]: 1 ug/mi
MIC values, Actinobacillus pleuropneumoniae CVCC262 [6]: 0.125 ug/mi
MIC values, Haemophilus parasuis [7]: 0.125 ug/mi

CCCN1C[C@@H](C)[C@@H](O)[C@](C)(O)[C@H](CC)OC(=O)[C@H](C)[C@H](OC2C[C@@](C)(OC)[C@](O)(CN(C)CC)[C@H](C)O2)[C@H](C)[C@@H](O[C@@H]2O[C@H](C)C[C@H](N(C)C)[C@H]2O)[C@](C)(O)C[C@H]1C (stereo partly drawn) [syzx-213]
LD50 at 7 days [1]: 2790 mg/kg
Animal survival rate (surviving/total animals) [2]: 9/10

CC[C@@H]1OC(=O)[C@H](C)[C@H](OC2C[C@@](C)(OC)[C@](O)(CNCCOC)[C@H](C)O2)[C@@H](C)[C@@H](O[C@@H]2O[C@H](C)C[C@H](N(C)C)[C@H]2O)[C@](C)(O)C[C@@H](C)NC[C@@H](C)[C@H](O)[C@]1(C)O (stereo partly drawn) [syzx-58]
LD50 at 7 days [1]: 3550 mg/kg
Animal survival rate (surviving/total animals) [2]: 8/10

CC[C@@H]1OC(=O)[C@H](C)[C@H](OC2C[C@@](C)(OC)[C@](O)(CN3CCCCC3)[C@H](C)O2)[C@@H](C)[C@@H](O[C@@H]2O[C@H](C)C[C@H](N(C)C)[C@H]2O)[C@](C)(O)C[C@@H](C)NC[C@@H](C)[C@H](O)[C@]1(C)O (stereo partly drawn) [syzx-15, (2R,3S,4R,5S,8R,10R,11R,12S,13S,14R)-13-[(2,6-dideoxy-3-C-methyl-3-O-methyl-4-C-[piperidinylmethyl]-α-L-ribopyranosyl)oxy]-2-ethyl-3,4,10-trihydroxy-3,5,8,10,12,14-hexamethyl-11-[[3,4,6-trideoxy-3-(dimethylamino)-β-D-xylo-hexopyranosy]oxy]-1-oxa-7-azacyclopentadecan-15-one]
LD50 at 7 days [1]: 2660 mg/kg
Animal survival rate (surviving/total animals) [2]: 8/10

CC[C@@H]1OC(=O)[C@H](C)[C@H](OC2C[C@@](C)(OC)[C@](O)(CNCC(C)C)[C@H](C)O2)[C@@H](C)[C@@H](O[C@@H]2O[C@H](C)C[C@H](N(C)C)[C@H]2O)[C@](C)(O)C[C@@H](C)NC[C@@H](C)[C@H](O)[C@]1(C)O (stereo partly drawn) [syzx-12, (2R,3S,4R,5S,8R,10R,11R,12S,13S,14R)-13-[(2,6-dideoxy-3-C-methyl-3-O-methyl-4-C-[(isobutylamino)methyl]-α-L-ribopyranosyl)oxy]-2-ethyl-3,4,10-trihydroxy-3,5,8,10,12,14-hexamethyl-11-[[3,4,6-trideoxy-3-(dimethylamino)-β-D-xylo-hexopyranosy]oxy]-1-oxa-7-azacyclopentadecan-15-one]
LD50 at 7 days [1]: 4310 mg/kg
Animal survival rate (surviving/total animals) [2]: 8/10

CC[C@@H]1OC(=O)[C@H](C)[C@H](OC2C[C@@](C)(OC)[C@](O)(CNC3CC3)[C@H](C)O2)[C@@H](C)[C@@H](O[C@@H]2O[C@H](C)C[C@H](N(C)C)[C@H]2O)[C@](C)(O)C[C@@H](C)NC[C@@H](C)[C@H](O)[C@]1(C)O (stereo partly drawn) [syzx-6, (2R,3S,4R,5S,8R,10R,11R,12S,13S,14R)-13-[(2,6-dideoxy-3-C-methyl-3-O-methyl-4-C-[(cyclopropylamino)methyl]-α-L-ribopyranosyl)oxy]-2-ethyl-3,4,10-trihydroxy-3,5,8,10,12,14-hexamethyl-11-[[3,4,6-trideoxy-3-(dimethylamino)-β-D-xylo-hexopyranosy]oxy]-1-oxa-7-azacyclopentadecan-15-one]
LD50 at 7 days [1]: 2610 mg/kg
Animal survival rate (surviving/total animals) [2]: 8/10

CC[C@@H]1OC(=O)[C@H](C)[C@H](OC2C[C@@](C)(OC)[C@](O)(CNCC3CC3)[C@H](C)O2)[C@@H](C)[C@@H](O[C@@H]2O[C@H](C)C[C@H](N(C)C)[C@H]2O)[C@](C)(O)C[C@@H](C)NC[C@@H](C)[C@H](O)[C@]1(C)O (stereo partly drawn) [syzx-17, (2R,3S,4R,5S,8R,10R,11R,12S,13S,14R)-13-[(2,6-dideoxy-3-C-methyl-3-O-methyl-4-C-[(cyclopropylmethylamino)methyl]-α-L-ribopyranosyl)oxy]-2-ethyl-3,4,10-trihydroxy-3,5,8,10,12,14-hexamethyl-11-[[3,4,6-trideoxy-3-(dimethylamino)-β-D-xylo-hexopyranosy]oxy]-1-oxa-7-azacyclopentadecan-15-one]
LD50 at 7 days [1]: 2670 mg/kg
Animal survival rate (surviving/total animals) [2]: 8/10
